Measurements published in US20240116988A1, “ANTI-ROR1 MACROCYCLIC PEPTIDES AND COMPOSITIONS” (BRISTOL-MYERS SQUIBB COMPANY, priority 2022, published 2024).
Positions of bridges follow the written chain, without caps; N, C: chain ends. Non-standard residues stand in square brackets, D forms with d. Residues, ends and D or L forms follow the SMILES beside them. ξ: configuration not given here. NMeF = CN[C@@H](Cc1ccccc1)C(=O)O; ξY = NC(Cc1ccc(O)cc1)C(=O)O; NMeA = CN[C@@H](C)C(=O)O

Target: T1, human ROR1 (Homo sapiens, UniProt Q01973)
T1 construct: host or cells: HEK 293T cells, Tet-on system induced with doxycycline
T1 sequence (Q01973 30-937): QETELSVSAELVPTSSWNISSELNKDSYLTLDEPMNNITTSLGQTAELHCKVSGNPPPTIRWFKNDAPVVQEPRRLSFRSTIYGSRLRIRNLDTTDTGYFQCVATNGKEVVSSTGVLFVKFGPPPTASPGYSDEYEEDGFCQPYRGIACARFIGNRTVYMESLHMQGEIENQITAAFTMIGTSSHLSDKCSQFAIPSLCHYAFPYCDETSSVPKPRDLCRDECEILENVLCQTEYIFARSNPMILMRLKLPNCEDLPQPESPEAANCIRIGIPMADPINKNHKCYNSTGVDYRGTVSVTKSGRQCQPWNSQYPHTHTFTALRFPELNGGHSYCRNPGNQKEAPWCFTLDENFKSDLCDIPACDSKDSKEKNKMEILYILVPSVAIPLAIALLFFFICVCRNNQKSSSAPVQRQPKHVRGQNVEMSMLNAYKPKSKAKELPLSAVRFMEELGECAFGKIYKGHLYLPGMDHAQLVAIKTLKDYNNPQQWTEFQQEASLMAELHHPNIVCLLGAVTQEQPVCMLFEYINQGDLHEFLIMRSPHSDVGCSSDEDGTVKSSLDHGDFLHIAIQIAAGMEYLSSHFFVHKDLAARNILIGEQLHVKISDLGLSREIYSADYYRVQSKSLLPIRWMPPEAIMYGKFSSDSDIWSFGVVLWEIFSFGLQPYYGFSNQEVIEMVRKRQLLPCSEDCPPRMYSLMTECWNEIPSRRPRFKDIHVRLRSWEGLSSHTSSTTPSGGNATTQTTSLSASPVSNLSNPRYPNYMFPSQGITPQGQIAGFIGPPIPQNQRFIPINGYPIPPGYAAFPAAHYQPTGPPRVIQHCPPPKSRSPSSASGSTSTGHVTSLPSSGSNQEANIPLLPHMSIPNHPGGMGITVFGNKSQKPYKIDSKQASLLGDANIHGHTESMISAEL
Assay: ROR1 high content cell-based binding assay
Conditions: read-out: ROR1 Binding 293T Human HC Cell Based Assay IC50
Outline: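 Doxycycline-induced 293T cells expressing human ROR1, seeded overnight, were treated with compound plus 5-FAM-labeled ROR1-binding probe peptide (30 nM final) for 1 h at 37 °C. After washing and formaldehyde/Hoechst fixation, cell-bound probe fluorescence was read by high-content imaging.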

SMILES	IC50 [nM]
CC(C)C[C@@H]1NC(=O)[C@H](Cc2ccc(O)cc2)NC(=O)[C@H](Cc2ccccc2)NC(=O)CSC[C@@H](C(=O)NCC(N)=O)NC(=O)[C@H](CC(C)C)NC(=O)[C@H](Cc2ccccc2)N(C)C(=O)[C@H](Cc2ccc(O)cc2)NC(=O)[C@H](Cc2c[nH]c3ccccc23)NC(=O)CNC(=O)[C@H](Cc2ccc(O)cc2)NC(=O)[C@H](CCCNC(=N)N)NC(=O)[C@H](C(C)C)NC1=O [Example 1055] ({CH2CO}-FYLVRYGWY[NMeF]LCG-NH2; thioether N-12)	29
CC(C)C[C@@H]1NC(=O)[C@H](Cc2ccc(O)cc2)NC(=O)[C@H](Cc2ccccc2)NC(=O)CSC[C@@H](C(=O)NCC(N)=O)NC(=O)[C@H](CC(C)C)NC(=O)[C@H](Cc2ccccc2)N(C)C(=O)[C@H](Cc2ccc(O)cc2)NC(=O)[C@H](Cc2c[nH]c3ccccc23)NC(=O)[C@H](CCCCN)NC(=O)[C@H](CO)NC(=O)[C@H](Cc2ccc(O)cc2)NC(=O)[C@H](C(C)C)NC1=O [Example 1056] ({CH2CO}-FYLVYSKWY[NMeF]LCG-NH2; thioether N-12)	740
CC(C)C[C@@H]1NC(=O)[C@H](Cc2ccccc2)NC(=O)CSC[C@@H](C(=O)NCC(N)=O)NC(=O)[C@H](CC(C)C)NC(=O)[C@H](Cc2ccccc2)N(C)C(=O)[C@H](Cc2ccc(O)cc2)NC(=O)[C@H](Cc2c[nH]c3ccccc23)NC(=O)CNC(=O)[C@H](CO)NC(=O)[C@H](Cc2ccc(O)cc2)NC(=O)[C@H](C(C)C)NC(=O)[C@H](Cc2c[nH]c3ccccc23)NC1=O [Example 1058] ({CH2CO}-FLWVYSGWY[NMeF]LCG-NH2; thioether N-12)	755
CC(C)C[C@@H]1NC(=O)[C@H](Cc2ccc(O)cc2)NC(=O)[C@H](Cc2ccccc2)NC(=O)CSC[C@@H](C(=O)NCC(N)=O)NC(=O)[C@H](CC(C)C)NC(=O)[C@H](Cc2ccccc2)N(C)C(=O)C(Cc2ccc(O)cc2)NC(=O)[C@H](Cc2c[nH]c3ccccc23)NC(=O)[C@@H](C)NC(=O)[C@H](CO)NC(=O)[C@H](Cc2ccc(O)cc2)NC(=O)[C@H](C(C)C)NC1=O (stereo partly shown) [Example 1059] ({CH2CO}-FYLVYS[dA]W[ξY][NMeF]LCG-NH2; thioether N-12)	93
CC(C)C[C@@H]1NC(=O)[C@H](Cc2ccc(O)cc2)NC(=O)[C@H](Cc2ccccc2)NC(=O)CSC[C@@H](C(=O)NCC(N)=O)NC(=O)[C@H](CC(C)C)NC(=O)[C@H](Cc2ccccc2)N(C)C(=O)[C@H](Cc2ccc(O)cc2)NC(=O)[C@H](Cc2c[nH]c3ccccc23)NC(=O)CNC(=O)[C@H](CO)NC(=O)[C@@H](C)NC(=O)[C@H](C(C)C)NC1=O [Example 1060] ({CH2CO}-FYLV[dA]SGWY[NMeF]LCG-NH2; thioether N-12)	30
CC(C)C[C@@H]1NC(=O)[C@H](Cc2ccc(O)cc2)NC(=O)[C@H](Cc2ccccc2)NC(=O)CSC[C@@H](C(=O)NCC(N)=O)NC(=O)[C@H](C)N(C)C(=O)[C@H](Cc2ccccc2)N(C)C(=O)[C@H](Cc2ccc(O)cc2)NC(=O)[C@H](Cc2c[nH]c3ccccc23)NC(=O)CNC(=O)[C@H](CO)NC(=O)[C@H](Cc2ccc(O)cc2)NC(=O)[C@H](C(C)C)NC1=O [Example 1064] ({CH2CO}-FYLVYSGWY[NMeF][NMeA]CG-NH2; thioether N-12)	199
CC(C)C[C@@H]1NC(=O)[C@H](Cc2ccc(O)cc2)NC(=O)[C@H](Cc2ccccc2)NC(=O)CSC[C@@H](C(=O)NCC(N)=O)NC(=O)CNC(=O)[C@H](Cc2ccccc2)N(C)C(=O)[C@H](Cc2ccc(O)cc2)NC(=O)[C@H](Cc2c[nH]c3ccccc23)NC(=O)CNC(=O)[C@H](CO)NC(=O)[C@H](Cc2ccc(O)cc2)NC(=O)[C@H](C(C)C)NC1=O [Example 1065] ({CH2CO}-FYLVYSGWY[NMeF]GCG-NH2; thioether N-12)	22
CC(C)C[C@@H]1NC(=O)[C@H](Cc2ccccc2)N(C)C(=O)[C@H](Cc2ccc(O)cc2)NC(=O)[C@H](Cc2c[nH]c3ccccc23)NC(=O)CNC(=O)[C@H](CO)NC(=O)[C@H](Cc2ccc(O)cc2)NC(=O)[C@H](C(C)C)NC(=O)[C@@H]2CCCN2C(=O)[C@H](Cc2ccc(O)cc2)NC(=O)[C@H](Cc2ccccc2)NC(=O)CSC[C@@H](C(=O)NCC(N)=O)NC1=O [Example 1066] ({CH2CO}-FYPVYSGWY[NMeF]LCG-NH2; thioether N-12)	5
CC(C)C[C@@H]1NC(=O)[C@H](Cc2ccc(O)cc2)NC(=O)[C@@H]2CCCN2C(=O)CSC[C@@H](C(=O)NCC(N)=O)NC(=O)[C@H](CC(C)C)NC(=O)[C@H](Cc2ccccc2)N(C)C(=O)[C@H](Cc2ccc(O)cc2)NC(=O)[C@H](Cc2c[nH]c3ccccc23)NC(=O)CNC(=O)[C@H](CO)NC(=O)[C@H](Cc2ccc(O)cc2)NC(=O)[C@H](C(C)C)NC1=O [Example 1067] ({CH2CO}-PYLVYSGWY[NMeF]LCG-NH2; thioether N-12)	515
CC(C)C[C@@H]1NC(=O)[C@H](Cc2ccccc2)NC(=O)[C@H](Cc2ccc(O)cc2)NC(=O)[C@H](Cc2c[nH]c3ccccc23)NC(=O)CNC(=O)[C@H](CO)NC(=O)[C@H](Cc2ccc(O)cc2)NC(=O)[C@H](C(C)C)NC(=O)[C@H](CC(C)C)NC(=O)[C@H](Cc2ccc(O)cc2)NC(=O)[C@H](Cc2ccccc2)NC(=O)CSC[C@@H](C(=O)NCC(N)=O)NC1=O [Example 1070] ({CH2CO}-FYLVYSGWYFLCG-NH2; thioether N-12)	65
CC(C)C[C@@H]1NC(=O)[C@H](Cc2ccc(O)cc2)NC(=O)[C@H](Cc2ccccc2)NC(=O)CSC[C@@H](C(=O)NCC(N)=O)NC(=O)[C@H](CC(C)C)NC(=O)[C@H](Cc2ccccc2)N(C)C(=O)[C@H](Cc2ccc(O)cc2)NC(=O)[C@H](Cc2c[nH]c3ccccc23)NC(=O)[C@H](C)NC(=O)[C@H](CO)NC(=O)[C@H](Cc2ccc(O)cc2)NC(=O)[C@H](C(C)C)NC1=O [Example 1071] ({CH2CO}-FYLVYSAWY[NMeF]LCG-NH2; thioether N-12)	72

More lines, in order of falling IC50, values ahead:

IC50 [nM]	SMILES
760	CC(C)C[C@@H]1NC(=O)[C@H](Cc2ccc(O)cc2)NC(=O)[C@H](Cc2ccccc2)NC(=O)CSC[C@@H](C(=O)NCC(N)=O)NC(=O)[C@H](CC(C)C)NC(=O)[C@H](Cc2ccccc2)N(C)C(=O)[C@H](Cc2ccc(O)cc2)NC(=O)[C@H](Cc2c[nH]c3ccccc23)NC(=O)[C@H](CCC(=O)O)NC(=O)[C@H](CO)NC(=O)[C@H](Cc2ccc(O)cc2)NC(=O)[C@H](C(C)C)NC1=O [Example 1053] ({CH2CO}-FYLVYSEWY[NMeF]LCG-NH2; thioether N-12)
645	CC(C)C[C@@H]1NC(=O)[C@H](Cc2ccc(O)cc2)NC(=O)[C@H](Cc2ccccc2)NC(=O)CSC[C@@H](C(=O)NCC(N)=O)NC(=O)[C@@H](C)NC(=O)[C@H](Cc2ccccc2)N(C)C(=O)[C@H](Cc2ccc(O)cc2)NC(=O)[C@H](Cc2c[nH]c3ccccc23)NC(=O)CNC(=O)[C@H](CO)NC(=O)[C@H](Cc2ccc(O)cc2)NC(=O)[C@H](C(C)C)NC1=O [Example 1061] ({CH2CO}-FYLVYSGWY[NMeF][dA]CG-NH2; thioether N-12)
576	CC(C)C[C@@H]1NC(=O)[C@H](Cc2ccc(O)cc2)NC(=O)[C@H](C)N(C)C(=O)CSC[C@@H](C(=O)NCC(N)=O)NC(=O)[C@H](CC(C)C)NC(=O)[C@H](Cc2ccccc2)N(C)C(=O)[C@H](Cc2ccc(O)cc2)NC(=O)[C@H](Cc2c[nH]c3ccccc23)NC(=O)CNC(=O)[C@H](CO)NC(=O)[C@H](Cc2ccc(O)cc2)NC(=O)[C@H](C(C)C)NC1=O [Example 1063] ({CH2CO}-[NMeA]YLVYSGWY[NMeF]LCG-NH2; thioether N-12)
453	CC(C)C[C@@H]1NC(=O)CNC(=O)[C@H](Cc2ccccc2)NC(=O)CSC[C@@H](C(=O)NCC(N)=O)NC(=O)[C@H](CC(C)C)NC(=O)[C@H](Cc2ccccc2)N(C)C(=O)[C@H](Cc2ccc(O)cc2)NC(=O)[C@H](Cc2c[nH]c3ccccc23)NC(=O)CNC(=O)[C@H](CO)NC(=O)[C@H](Cc2ccc(O)cc2)NC(=O)[C@H](C(C)C)NC1=O [Example 1068] ({CH2CO}-FGLVYSGWY[NMeF]LCG-NH2; thioether N-12)
82	CC(C)C[C@@H]1NC(=O)[C@H](Cc2ccc(O)cc2)NC(=O)[C@H](Cc2ccccc2)NC(=O)CSC[C@@H](C(=O)NCC(N)=O)NC(=O)[C@H](CC(C)C)NC(=O)[C@H](Cc2ccccc2)N(C)C(=O)[C@H](Cc2ccc(O)cc2)NC(=O)[C@H](Cc2c[nH]c3ccccc23)NC(=O)CNC(=O)[C@H](CO)NC(=O)[C@H](Cc2ccc(O)cc2)NC(=O)[C@H](CO)NC1=O [Example 1069] ({CH2CO}-FYLSYSGWY[NMeF]LCG-NH2; thioether N-12)
80	CC(C)C[C@@H]1NC(=O)CSC[C@@H](C(=O)NCC(N)=O)NC(=O)[C@H](CC(C)C)NC(=O)[C@H](Cc2ccccc2)N(C)C(=O)[C@H](Cc2ccc(O)cc2)NC(=O)[C@H](Cc2c[nH]c3ccccc23)NC(=O)CNC(=O)[C@H](CO)NC(=O)[C@H](Cc2ccc(O)cc2)NC(=O)[C@H](C(C)C)NC(=O)[C@H](CC(C)C)NC(=O)[C@H](Cc2ccc(O)cc2)NC1=O [Example 1072] ({CH2CO}-LYLVYSGWY[NMeF]LCG-NH2; thioether N-12)
35	CC(C)C[C@@H]1NC(=O)[C@H](Cc2ccc(O)cc2)NC(=O)[C@H](Cc2ccccc2)NC(=O)CSC[C@@H](C(=O)NCC(N)=O)NC(=O)[C@H](CC(C)C)NC(=O)[C@H](Cc2ccccc2)N(C)C(=O)[C@H](Cc2ccc(O)cc2)NC(=O)[C@H](Cc2c[nH]c3ccccc23)NC(=O)CNC(=O)[C@H](Cc2c[nH]c3ccccc23)NC(=O)[C@H](CCCNC(=N)N)NC(=O)[C@H](C(C)C)NC1=O [Example 1054] ({CH2CO}-FYLVRWGWY[NMeF]LCG-NH2; thioether N-12)
20	CC(C)C[C@@H]1NC(=O)[C@H](Cc2ccccc2)N(C)C(=O)[C@H](Cc2ccc(O)cc2)NC(=O)[C@H](Cc2c[nH]c3ccccc23)NC(=O)CNC(=O)[C@H](CO)NC(=O)[C@H](Cc2ccc(O)cc2)NC(=O)[C@H](C(C)C)NC(=O)[C@H](C)N(C)C(=O)[C@H](Cc2ccc(O)cc2)NC(=O)[C@H](Cc2ccccc2)NC(=O)CSC[C@@H](C(=O)NCC(N)=O)NC1=O [Example 1062] ({CH2CO}-FY[NMeA]VYSGWY[NMeF]LCG-NH2; thioether N-12)
